For experiment [1], the system named is BPH model rats. Description: Prostate growth in testosterone induced BPH rats. Type of experiment: in vivo, Wistar rats. The procedure:
Forty-two male Wistar rats (10 week old) were purchased from Biogen, Bangalore, India (CPCSEA Reg. No. 971/bc/06). The animals were housed in accordance with the CPCSEA (Committee for the Purpose of Control and Supervision of Experiments on Animals) guidelines. After a one-week acclimatization period the animals were housed in rooms maintained at 22±2° C. and 30-70% humidity. Water and standard pellet diet were given ad libitum. The animals were randomly divided into seven groups, each group consisting of six animals with less than 20% mean body weight range.
(§1) BPH was induced in rats using testosterone 5 mg/kg subcutaneously and a simultaneous treatment with different doses of saw palmetto preparations viz. Saw palmetto oil (SPO) and the inventive composition (200 and 400 mg/kg b.w.) or Finasteride (1 mg/kg b.w.) p.o., was followed for 21 days (Table 1). The inventive composition (VISPO) was a composition of saw palmetto oil having 3% β-sitosterol. At the end of the treatment period, blood was collected prior to the necropsy. Animals were sacrificed by overdose of anesthetics. The vital parameters such as prostate weight, prostate weight to body weight ratio, growth inhibition of prostate, serum testosterone level, expression of inflammatory and apoptotic proteins in prostate tissue were evaluated.
Following a 21-day treatment with the saw palmetto oil preparations and/or Finasteride, prostate tissues were excised, rinsed and weighed immediately after removal. The PW/BW ratio was calculated using the following equation: PW/BW ratio=(Prostate weight of each animal from experimental group/Body weight of each animal from experimental group)×1000. The percentage of growth inhibition was calculated as follows: 100−[(treated group−control group)/(BPH group−control group)]×100.

For experiment [2], the system named is hyperplastic patterns in prostate tissue of BPH rats. Description: Histology (H&E) of prostate tissue of BPH rats. In kind it is in vivo, Wistar rats. To be noted: finasteride group 1 mg/kg. The procedure:
as §1
The prostate tissue samples were fixed in 4% formalin, dehydrated with a graded alcohol series, embedded in paraffin, and then cut into 4 μm thickness. The sections were stained with hematoxylin and eosin (H&E, Sigma-Aldrich, St. Louis, MO, USA). The images were captured using a microscope (Leica, Germany).

`CC(C)(C)NC(=O)[C@H]1CC[C@H]2[C@@H]3CC[C@H]4NC(=O)C=C[C@]4(C)[C@H]3CC[C@]12C` [Finasteride] returned a Prostate weight in experiment [1] (1 mg/kg p.o., 21 days, testosterone 5 mg/kg s.c., mean ± SEM (n = 6)) of 0.27 ± 0.01 g. For the same compound, the Inhibition of growth – broadly, the share of the control response that was lost under treatment – in experiment [1] (1 mg/kg p.o., 21 days, prostate growth vs BPH and control groups) turned out to be 93.18%. For the same compound, in experiment [1] (Finasteride treatment 1 mg/kg, vs BPH group), the “Reduction in prostate weight” value came out at 2.51 fold. Further, the “Prostate weights, in words” value in experiment [1] (vs BPH group, p<0.001) is “reduced considerably”. The “Histological examination of prostate tissue” value in experiment [2] is “near normal prostatic glands with mild focal inflammation”.

Source of the values: patent publication US12329764B2, “Composition for promoting normal urinary function” (Vidya Herbs, Inc., priority 2018, dated 2025).
